Test results taken from patent publication US10744087B2, “Method to slow ventricular rate” (InCarda Therapeutics, Inc., priority 2018, dated 2020).
Counter-ions that a name gives are not always drawn. Like-named read-outs stand apart in the source and are kept apart here.

What was measured:
[1] = tested on: new onset atrial fibrillation or flutter; conditions: esmolol-treated patients with new onset atrial fibrillation or flutter; cited from earlier work
atrial fibrillation = conditions: given in oral pills; several studies (Ferreira 1997 review); cited from earlier work
[2] = cited from earlier work
[3] = tested on: pig models with induced atrial fibrillation; assay: Intratracheal nebivolol or metoprolol, alone or combined with flecainide, in pig models with induced atrial fibrillation (Example 6); type: in vivo, male Yorkshire pigs
Procedure: The investigations were conducted in male Yorkshire pigs. The animals were preanesthetized with telazol (4.7 mg/kg, intramuscular) and subsequently were further anesthetized using alpha-chloralose (80-mg/kg IV bolus followed by 24-mg/kg/h continuous IV infusion). The pigs were intubated and ventilated at a constant rate of 12 breaths/min and tidal volume of 400 ml per stroke.
(§1) The catheters were positioned under fluoroscopic control. Electrograms were recorded from a decapolar electrode catheter positioned in the LV. Mean arterial pressure (MAP) was continuously recorded from a femoral arterial sheath. LV blood pressure was continuously monitored from a pigtail catheter. A catheter was introduced into the pericardial space via the right atrial appendage for delivery of intrapericardial acetylcholine. Atrial pacing at 160 beats/min was accomplished by delivering electrical stimuli to the right atrial catheter electrodes. Electrograms were monitored using a Prucka CardioLab workstation (GE Medical Systems, Milwaukee Wis.) from atrial and ventricular sites. For intratracheal instillation of metoprolol solution or sterile water, a 5 Fr angiography catheter was introduced into the trachea via the endotracheal tube, extending ˜1 cm past the tube, and its tip was positioned under fluoroscopy at the tracheal carina level.
Metoprolol obtained in powder form was used to prepare a stock solution of 15.3 mg/ml by dissolving the drug in 100% dimethyl sulfoxide (DMSO). A volume was withdrawn from the stock solution to achieve a 2 mg/kg IT dose and was supplemented with sterile water to attain a 2 ml total volume for bolus injection.
For Nebivolol (racemic mixtures of d- and l-nebivolol), a stock solution of 25 mg/ml was prepared by dissolving the drug in 100% DMSO. The dose was 0.3 mg/kg for intratracheal instillation. The corresponding volume was withdrawn from the stock solution based on body weight of the pig, and the allocated volume was completed with sterile water to attain 2 ml total volume. The administration was made with a 5 cc syringe with 2 ml of 0.3 mg/kg nebivolol solution and 3 ml of air.
AF was induced with 1 mL of a 102.5 mM solution of acetylcholine bolus delivered through the pericardial catheter, followed by saline flush (2 mL). Burst pacing at a cycle length of 178 ms was performed at 1 minute after intrapericardial administration of ACh. After AF initiation, lavage was carried out with 20 mL of saline.
For the intratracheal instillation of metoprolol (0.2 mg/kg or 0.4 mg/kg), nebivolol (0.3 mg/kg), flecainide (0.75 mg/kg), or cocktail of metoprolol and flecainide (0.2 mg/kg and 0.75 mg/kg, respectively), the drug agent was administered in 2 mL total volume in a single “push” of 2-3 seconds, followed by 3 ml of air in a 5 ml syringe, via the […] Sterile water (2 ml) was used as a placebo for intratracheal instillation in the baseline AF. A washout period of 30 to 60 min was allowed between inductions of each occurrence of AF.
AF duration was compared starting at 2 min after AF was induced, when the IT instillation was administered. The average ventricular rate for each AF was obtained by the mean of six measurements of ventricular rate performed each 30 seconds between the IT delivery (sterile water or metoprolol instillation) and the AF conversion to sinus rhythm.
For the study of nebivolol, in 2 of the 4 animals that were tested, at 60 min following nebivolol administration, flecainide was administered to test the effect of combined use of nebivolol and flecainide. For the study of metoprolol, given that metoprolol can have a short half-life in vivo, the effect of combined use of metoprolol and flecainide was tested by giving a second IT dose of metoprolol-flecainide cocktail 60 min following the first IT dose of metoprolol in the animals.

animal models of AF = assay: Intratracheal co-delivery of metoprolol and flecainide in pig AF models (Example 7); type: in vivo, male Yorkshire pigs
Procedure: Experimental animal models of AF (male Yorkshire pigs), and study reagents (metoprolol and flecainide) were prepared according to similar procedures described in Examples 5 and 6. In this example, the animals received IT administration of either metoprolol alone (0.2 mg/kg or 0.4 mg/kg), a cocktail of metoprolol and flecainide (0.2 mg/kg and 0.75 mg/kg, respectively, or 0.4 mg/kg and 0.75 mg/kg, respectively), or flecainide alone (0.75 mg/kg).

[4] = tested on: pig models of induced atrial fibrillation; assay: Intratracheal metoprolol in pig model of acetylcholine/burst-pacing induced atrial fibrillation (Example 5): AF duration, PR interval, dominant frequency, ventricular rate; type: in vivo, male Yorkshire pigs; conditions: for reduction of ventricular rate during AF: IT metoprolol 0.2 mg/kg vs baseline AF with sterile water
Procedure: Experiments described herein (e.g., Examples 5-7) complied with the National Institutes of Health Guide for the Care and Use of Laboratory Animals as well as the Declaration of Helsinki. The protocol was approved by the institutional animal use committee of Beth Israel Deaconess Medical Center (Boston Mass.). The investigations were conducted in male Yorkshire pigs weighing 46±1.8 kg. The animals were preanesthetized with telazol (4.7 mg/kg, intramuscular) and subsequently were further anesthetized using alpha-chloralose (80-mg/kg IV bolus followed by 24-mg/kg/h continuous IV infusion). The pigs were intubated and ventilated at a constant rate of 12 breaths/min and tidal volume of 400 ml per stroke. The catheters were positioned under fluoroscopic control. Electrograms were recorded from a decapolar electrode catheter positioned in the LV. Mean arterial pressure (MAP) was continuously recorded from a femoral arterial sheath. LV blood pressure was continuously monitored from a pigtail catheter. A catheter was introduced into the pericardial space via the right atrial appendage for delivery of intrapericardial acetylcholine. Atrial pacing at 160 beats/min was accomplished by delivering electrical stimuli to the right atrial catheter electrodes. Electrograms were monitored using a Prucka CardioLab workstation (GE Medical Systems, Milwaukee Wis.) from atrial and ventricular sites. For intratracheal instillation of metoprolol solution or sterile water, a 5 Fr angiography catheter was introduced into the trachea via the endotracheal tube, extending ˜1 cm past the tube, and its tip was positioned under fluoroscopy at the tracheal carina level. Metoprolol solutions of 0.2 mg/kg for intratracheal instillation were prepared by dilution of stock solution of 15.3 mg/ml in saline, originally obtained from metoprolol in powder form by dilution in dimethyl sulfoxide (DMSO). Plasma samples were analyzed using a high-performance liquid chromatography tandem mass spectrometric assay at Climax Laboratories, Inc. (San Jose Calif.). AF was induced with 1 mL of a 102.5 mM solution of acetylcholine bolus delivered through the pericardial catheter, followed by saline flush (2 mL). Burst pacing at a cycle length of 178 ms was performed at 1 minute after intrapericardial administration of ACh. After AF initiation, lavage was carried out with 20 ml of saline. For the intratracheal instillation of metoprolol (2 ml of 0.2 mg/kg concentration followed by 3 ml of air in a 5 ml syringe), the agent was administered in a single “push” via the modified angiography catheter positioned in the endotracheal tube at the beginning of the inspiration phase after two minutes of consolidated atrial fibrillation. Sterile water (2 ml) was used as a placebo for intratracheal instillation in the baseline AF. A washout period of 30 to 60 min was allowed between inductions of each occurrence of AF. AF duration was compared starting at 2 min after AF was induced, when the IT instillation was administered. The average ventricular rate for each AF was obtained by the mean of six measurements of ventricular rate performed each 30 seconds between the IT delivery (sterile water or metoprolol instillation) and the AF conversion to sinus rhythm. Contractility (LV dP/dt) and MAP were recorded during atrial pacing at 160 beats/min before AF was induced and after it was terminated. Statistical analyses were performed using the SAS system (version 9.4) to apply ANOVA with post-hoc Dunnett's test for each time point. Data are reported as means±SEM. Statistical significance was assumed at p<0.05.

atrial arrhythmia = conditions: intravenous, 5 to 15 mg bolus doses; cited from earlier work
[5] = tested on: pig models of induced atrial fibrillation; assay: Left ventricular contractility (LV dP/dt) and mean arterial pressure before and after AF, atrial pacing 160 beats/min (Example 5); type: in vivo, male Yorkshire pigs; conditions: IT metoprolol 0.2 mg/kg
Procedure: as §1, with “level. AF duration was compared starting at 2 min after AF was induced, when the IT instillation was administered. The average ventricular rate for each AF was obtained by the mean of six measurements of ventricular rate performed each 30 seconds between the IT delivery (sterile water or metoprolol instillation) and the AF conversion to sinus rhythm. Contractility (LV dP/dt) and MAP were recorded during atrial pacing at 160 beats/min before AF was induced and after it was terminated. Statistical analyses were performed using the SAS system (version 9.4) to apply ANOVA with post-hoc Dunnett's test for each time point. Data are reported as means±SEM. Statistical significance was assumed at p<0.05.” for “level.”

[6] = AF induced 30 min after IT nebivolol 0.3 mg/kg

For `COC(=O)CCc1ccc(OCC(O)CNC(C)C)cc1` (centres unmarked) [esmolol], the “patients converted to sinus rhythm” value [1] is given as “about 50%”.
For `CC(C)NCC(O)c1ccc(NS(C)(=O)=O)cc1` (centres unmarked) [soltalol], the “efficacy for acute conversion of atrial fibrillation to normal sinus rhythm” value (atrial fibrillation) is given as 8-49%.
For `OC(CNCC(O)C1CCc2cc(F)ccc2O1)C1CCc2cc(F)ccc2O1` (centres unmarked) [Nebivolol hydrochloride], the solubility ([2]; in ethanol, propylene glycol, and polyethylene glycol) is listed as “sparingly soluble”, the solubility ([2]; in hexane, dichloromethane, and methylbenzene) is listed as “very slightly soluble” and the solubility ([2]; in methanol, dimethylsulfoxide, and N,N-dimethylformamide) is listed as “soluble”.
For `OC(CNCC(O)C1CCc2cc(F)ccc2O1)C1CCc2cc(F)ccc2O1` (racemic) [nebivolol, 2,2′-Azanediylbis(1-(6-fluorochroman-2-yl)ethanol)], the water solubility ([2]; water) is listed as “low water solubility”, the “reduction in ventricular rate during AF” value [3, 6] is listed as “about 22%” and the “shortening of the AF duration” value [3, 6] is listed as “about 33%”. The “reduction in ventricular rate during AF” value ([3]; AF induced right after IT nebivolol 0.3 mg/kg) was “about 10%” and the “shortening of the AF duration” value ([3]; IT nebivolol 0.3 mg/kg, administered right before the AF induction, vs placebo baseline AF) was “about 24%”.
In the case of `O=C(NCC1CCCCN1)c1cc(OCC(F)(F)F)ccc1OCC(F)(F)F` (centres unmarked) [flecainide], the “reduction in the average ventricular rate during AF” value (animal models of AF; IT 0.75 mg/kg flecainide alone) is reported as “about 10%”.
For `COCCc1ccc(OCC(O)CNC(C)C)cc1` (racemic) [metoprolol, (±) 1-(isopropylamino)-3-[p-(2-methoxyethyl)phenoxy]-2-propanol], the “occurrence of atrial flutter during conversion” value ([4]; IT metoprolol 0.2 mg/kg) was “In none of the animals did atrial flutter occur”, the “reduction of ventricular rate during AF” value [4] was 12±2.6% and the “reduction of ventricular rate during AF” value ([4]; p=0.007) was 32 beats/min. For the same compound, the “reduction of AF dominant frequency” value ([4]; IT metoprolol 0.2 mg/kg vs baseline AF, p=0.04) was 31%, the “shortening of the AF duration” value ([4]; IT metoprolol 0.2 mg/kg vs placebo baseline AF (sterile water IT), p=0.018) was 20.4±4.9% and the AF dominant frequency ([4]; IT metoprolol 0.2 mg/kg, baseline AF 8.7±0.94) was 6±1.1 Hz. For the same compound, the “ventricular rate during AF” value ([4]; IT metoprolol 0.2 mg/kg, baseline AF 272±13.7) was 240±12.6 beats/min, the AF duration ([4]; IT metoprolol 0.2 mg/kg, placebo baseline 10.3±2.0, mean±SEM) was 8.0 ± 1.5 min and the PR interval ([4]; metoprolol 0.2 mg/kg bolus IT, from 174±11.2, p=0.07) was 182 ± 11.4 ms. For the same compound, the “increase in PR interval” value ([4]; metoprolol 0.2 mg/kg bolus IT, trend, p=0.07) was 4%, the “reduction in the AF duration” value (animal models of AF; IT 0.2 mg/kg metoprolol alone) was “about 20%” and the “reduction in the average ventricular rate during the AF conversion” value (animal models of AF; IT 0.2 mg/kg metoprolol alone) was “about 10%”. The “reduction in the AF duration” value (animal models of AF; IT 0.4 mg/kg metoprolol alone) was “about 27%”, the “reduction in the average ventricular rate during the AF conversion” value (animal models of AF; IT 0.4 mg/kg metoprolol alone) was “about 10%” and the “reduction of ventricular rate during AF” value ([3]; AF 30 min after IT metoprolol 0.2 mg/kg) was “moderate”. The “shortening of the AF duration” value ([3]; AF induced 30 min after IT metoprolol 0.2 mg/kg) was “about 36%”, the “shortening of the AF duration” value ([3]; AF induced right after IT metoprolol 0.2 mg/kg alone, vs placebo baseline AF) was “about 28%” and the “reduction in ventricular rate during AF” value ([3]; AF induced right after IT metoprolol 0.2 mg/kg, vs baseline AF) was “about 13%”. The “conversion rate of atrial arrhythmia” value (atrial arrhythmia) was 13%, the “patients with rate reduced at least 25% or to less than 100 bpm” value (atrial arrhythmia) was 68% and the “MAP after AF” value ([5]; before AF 125±4.3, p=0.26, pacing 160 beats/min) was 118±4.0. For the same compound, the “contractility (LV dP/dt) after AF conversion” value ([5]; before AF 2337±252.7, pacing 160 beats/min) was 1951±277.9, the “change in MAP” value ([5]; before vs after AF) was “no significant changes” and the “reduction in contractility (LV dP/dt) after conversion” value ([5]; pacing 160 beats/min, p=0.006, not different from AF baseline reduction (p=0.85)) was 17.5±4.0%.
